Reference: ChEMBL document CHEMBL4376834, “Discovery of 4H-Chromen-4-one Derivatives as a New Class of Selective Rho Kinase (ROCK) Inhibitors, which Showed Potent Activity in ex Vivo Diabetic Retinopathy Models” (J Med Chem, 2019)
Converted amounts (≈) assume the structure as drawn.

Key:
[1] = molecular target: Dual specificity tyrosine-phosphorylation-regulated kinase 1A (Homo sapiens, UniProt Q13627); assay: Inhibition of recombinant full length human DYRK1A using RRRFRPASPLRGPP as substrate after 40 mins in presence of [gamma-33ATP] by radiometric scintillation counting analysis
[2] = molecular target: Serine/threonine-protein kinase tousled-like 2 (Homo sapiens, UniProt Q86UE8); assay: Inhibition of recombinant human TLK2 (387 to end residues) using casein as substrate incubated for 40 mins in presence of [gamma33P]ATP by radiometric scintillation counting analysis
Sequence of Serine/threonine-protein kinase tousled-like 2 (Q86UE8 whole entry): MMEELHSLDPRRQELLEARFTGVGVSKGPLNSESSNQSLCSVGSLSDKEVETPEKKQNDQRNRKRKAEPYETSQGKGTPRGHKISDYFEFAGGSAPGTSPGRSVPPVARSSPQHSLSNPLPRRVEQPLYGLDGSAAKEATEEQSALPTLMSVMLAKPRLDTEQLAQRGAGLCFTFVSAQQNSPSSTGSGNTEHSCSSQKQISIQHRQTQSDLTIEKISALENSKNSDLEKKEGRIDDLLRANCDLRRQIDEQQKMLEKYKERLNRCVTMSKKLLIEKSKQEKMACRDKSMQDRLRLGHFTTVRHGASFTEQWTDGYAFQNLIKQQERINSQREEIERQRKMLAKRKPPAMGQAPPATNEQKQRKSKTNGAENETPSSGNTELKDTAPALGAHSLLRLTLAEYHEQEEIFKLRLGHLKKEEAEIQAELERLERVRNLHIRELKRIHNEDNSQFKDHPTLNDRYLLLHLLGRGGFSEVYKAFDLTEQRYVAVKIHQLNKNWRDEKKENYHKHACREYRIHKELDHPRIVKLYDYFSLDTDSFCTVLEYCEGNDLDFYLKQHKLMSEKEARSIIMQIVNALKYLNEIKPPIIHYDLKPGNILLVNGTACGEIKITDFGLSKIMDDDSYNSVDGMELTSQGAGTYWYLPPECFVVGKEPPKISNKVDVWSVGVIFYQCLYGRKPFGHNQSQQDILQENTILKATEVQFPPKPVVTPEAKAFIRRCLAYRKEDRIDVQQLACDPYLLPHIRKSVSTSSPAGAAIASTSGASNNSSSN

[3] = molecular target: ALK tyrosine kinase receptor (Homo sapiens, UniProt Q9UM73); assay: Inhibition of human recombinant ALK (1058 to end residues) using KKKSPGEYVNIEF as substrate incubated for 40 mins in presence of [gamma-33P]ATP by radiometric scintillation counting analysis
Sequence of ALK tyrosine kinase receptor (Q9UM73 whole entry): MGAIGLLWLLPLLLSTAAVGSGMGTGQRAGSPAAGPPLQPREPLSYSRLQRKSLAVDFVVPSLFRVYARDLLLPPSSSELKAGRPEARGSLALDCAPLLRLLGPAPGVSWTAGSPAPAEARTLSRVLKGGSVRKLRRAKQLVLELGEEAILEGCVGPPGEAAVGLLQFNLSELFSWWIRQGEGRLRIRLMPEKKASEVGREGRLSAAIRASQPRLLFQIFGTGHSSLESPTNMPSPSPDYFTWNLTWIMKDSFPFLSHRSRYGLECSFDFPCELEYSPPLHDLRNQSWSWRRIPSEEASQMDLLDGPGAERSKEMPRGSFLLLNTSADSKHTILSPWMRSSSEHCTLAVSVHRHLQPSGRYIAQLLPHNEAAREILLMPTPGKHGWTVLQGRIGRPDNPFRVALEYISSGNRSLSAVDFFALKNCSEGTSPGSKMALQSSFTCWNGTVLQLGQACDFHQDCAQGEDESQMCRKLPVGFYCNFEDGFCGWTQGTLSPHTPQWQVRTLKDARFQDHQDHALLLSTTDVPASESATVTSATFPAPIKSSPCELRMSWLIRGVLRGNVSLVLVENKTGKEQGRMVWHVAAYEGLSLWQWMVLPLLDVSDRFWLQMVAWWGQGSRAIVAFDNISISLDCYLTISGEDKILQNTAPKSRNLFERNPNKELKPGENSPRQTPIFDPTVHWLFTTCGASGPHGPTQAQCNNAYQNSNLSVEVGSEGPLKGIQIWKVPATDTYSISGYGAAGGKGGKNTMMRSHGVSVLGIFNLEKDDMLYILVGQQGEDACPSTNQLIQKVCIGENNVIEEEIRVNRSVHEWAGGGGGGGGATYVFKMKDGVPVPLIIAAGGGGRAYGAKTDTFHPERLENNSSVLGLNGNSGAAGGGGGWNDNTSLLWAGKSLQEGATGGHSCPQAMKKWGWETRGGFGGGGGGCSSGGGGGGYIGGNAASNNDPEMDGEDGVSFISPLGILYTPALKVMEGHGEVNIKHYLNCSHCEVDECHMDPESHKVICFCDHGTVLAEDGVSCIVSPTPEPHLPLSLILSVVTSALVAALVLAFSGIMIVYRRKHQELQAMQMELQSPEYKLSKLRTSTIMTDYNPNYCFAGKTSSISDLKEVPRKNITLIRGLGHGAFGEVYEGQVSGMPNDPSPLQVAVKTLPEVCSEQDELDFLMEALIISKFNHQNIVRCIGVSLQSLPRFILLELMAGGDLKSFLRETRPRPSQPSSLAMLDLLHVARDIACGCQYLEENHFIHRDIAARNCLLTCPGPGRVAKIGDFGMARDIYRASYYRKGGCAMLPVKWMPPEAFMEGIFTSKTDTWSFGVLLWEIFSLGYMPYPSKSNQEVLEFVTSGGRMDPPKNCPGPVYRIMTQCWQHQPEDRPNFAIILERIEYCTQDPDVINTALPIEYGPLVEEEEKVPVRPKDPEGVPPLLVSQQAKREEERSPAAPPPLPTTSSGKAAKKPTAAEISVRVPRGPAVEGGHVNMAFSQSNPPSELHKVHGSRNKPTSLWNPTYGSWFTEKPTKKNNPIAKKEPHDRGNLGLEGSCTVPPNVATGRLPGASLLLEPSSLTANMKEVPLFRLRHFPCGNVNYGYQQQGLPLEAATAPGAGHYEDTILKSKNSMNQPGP

[4] = Inhibition of recombinant full length human PKBalpha S478G mutant using GRPRTSSFAEGKK as substrate incubated for 40 mins in presence of [gamma33P]ATP by radiometric scintillation counting analysis
[5] = molecular target: Mitogen-activated protein kinase kinase kinase kinase 1 (Homo sapiens, UniProt Q92918); assay: Inhibition of human recombinant HPK1 (1 to 346 residues) using myelin basic protein as substrate after 40 mins by [gamma-33ATP] radiometric assay
[6] = molecular target: Glycogen synthase kinase-3 alpha (Homo sapiens, UniProt P49840); assay: Inhibition of human GSK-3alpha S449A mutant (2 to end residues) using YRRAAVPPSPSLSR as substrate after 40 mins by [gamma-33ATP] radiometric scintillation counting analysis
[7] = molecular target: Cyclin-dependent kinase 2/cyclin E1 (Homo sapiens, UniProt P24941); assay: Inhibition of recombinant full length human CDK2/CyclinE using Histone H1 as substrate incubated for 40 mins in presence of [gamma-33ATP] by radiometric scintillation counting analysis; format: protein-complex assay
[8] = molecular target: Receptor tyrosine-protein kinase erbB-2 (Homo sapiens, UniProt P04626, G778D); assay: Inhibition of recombinant human ERBB2 G778D (676 to end residues) using poly(Glu, Tyr) 4:1 as substrate after 40 mins in presence of [gamma-33ATP] by radiometric scintillation counting analysis
[9] = molecular target: Leukocyte tyrosine kinase receptor (Homo sapiens, UniProt P29376); assay: Inhibition of recombinant human LTK (450 to end residues) using GEEPLYWSFPAKK as substrate after 40 mins in presence of [gamma-33ATP] by radiometric scintillation counting analysis
[10] = molecular target: Dual specificity protein kinase CLK1 (Homo sapiens, UniProt P49759); assay: Inhibition of recombinant human CLK1 (130 to end residues) using ERMRPRKRQGSVR as substrate incubated 40 mins in presence of [gamma-33ATP] by radiometric scintillation counting analysis
Sequence of Dual specificity protein kinase CLK1 (P49759 whole entry): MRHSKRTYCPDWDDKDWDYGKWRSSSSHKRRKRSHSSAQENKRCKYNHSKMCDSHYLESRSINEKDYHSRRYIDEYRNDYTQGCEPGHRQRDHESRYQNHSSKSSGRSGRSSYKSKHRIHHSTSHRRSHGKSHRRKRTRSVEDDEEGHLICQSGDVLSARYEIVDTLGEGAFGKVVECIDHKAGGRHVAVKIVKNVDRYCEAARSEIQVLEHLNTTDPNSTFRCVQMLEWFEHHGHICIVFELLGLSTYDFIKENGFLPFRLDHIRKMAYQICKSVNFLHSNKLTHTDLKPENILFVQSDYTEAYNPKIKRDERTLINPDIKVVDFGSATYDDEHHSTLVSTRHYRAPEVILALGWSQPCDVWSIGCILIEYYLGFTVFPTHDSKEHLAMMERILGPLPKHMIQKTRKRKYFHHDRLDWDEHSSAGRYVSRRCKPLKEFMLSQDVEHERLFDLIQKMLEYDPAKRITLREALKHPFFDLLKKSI

[11] = molecular target: Platelet-derived growth factor receptor beta (Homo sapiens, UniProt P09619); assay: Inhibition of human PDGFRbeta (557 to end residues) using poly(Glu, Tyr) 4:1 as substrate measured after 40 mins in presence of [gamma33P]ATP by radiometric scintillation counting analysis
[12] = molecular target: Discoidin domain-containing receptor 2 (Homo sapiens, UniProt Q16832); assay: Inhibition of recombinant human DDR2 S642A mutant (467 to end residues) using KKSRGDYMTMQIG as substrate after 40 mins in presence of [gamma-33ATP] by radiometric scintillation counting analysis
[13] = molecular target: NUAK family SNF1-like kinase 2 (Homo sapiens, UniProt Q9H093); assay: Inhibition of recombinant human full length NUAK2 using KKKVSRSGLYRSP as substrate measured after 40 mins in presence of [gamma33P]ATP by radiometric scintillation counting analysis
[14] = molecular target: Serine/threonine-protein kinase WNK1 (Homo sapiens, UniProt Q9H4A3); assay: Inhibition of recombinant human WNK1 (1 to 491 residues) using myelin basic protein as substrate incubated for 40 mins in presence of [gamma33P]ATP by radiometric scintillation counting analysis
[15] = molecular target: Cyclin-dependent kinase-like 4 (Homo sapiens, UniProt Q5MAI5); assay: Inhibition of recombinant full length human CDKL4 in presence of [gamma-33ATP] by radiometric scintillation counting analysis
[16] = molecular target: Serine/threonine-protein kinase Nek9 (Homo sapiens, UniProt Q8TD19); assay: Inhibition of recombinant human NEK9 (1 to 324 residues) using myelin basic protein as substrate measured after 40 mins in presence of [gamma33P]ATP by radiometric scintillation counting analysis
[17] = molecular target: Serine/threonine-protein kinase Sgk2 (Homo sapiens, UniProt Q9HBY8, S416D); assay: Inhibition of recombinant human SGK2 S416D mutant (54 to end residues) using GRPRTSSFAEGKK as substrate incubated for 40 mins in presence of [gamma33P]ATP by radiometric scintillation counting analysis
Sequence of Serine/threonine-protein kinase Sgk2 (Q9HBY8 as listed by the source S416D): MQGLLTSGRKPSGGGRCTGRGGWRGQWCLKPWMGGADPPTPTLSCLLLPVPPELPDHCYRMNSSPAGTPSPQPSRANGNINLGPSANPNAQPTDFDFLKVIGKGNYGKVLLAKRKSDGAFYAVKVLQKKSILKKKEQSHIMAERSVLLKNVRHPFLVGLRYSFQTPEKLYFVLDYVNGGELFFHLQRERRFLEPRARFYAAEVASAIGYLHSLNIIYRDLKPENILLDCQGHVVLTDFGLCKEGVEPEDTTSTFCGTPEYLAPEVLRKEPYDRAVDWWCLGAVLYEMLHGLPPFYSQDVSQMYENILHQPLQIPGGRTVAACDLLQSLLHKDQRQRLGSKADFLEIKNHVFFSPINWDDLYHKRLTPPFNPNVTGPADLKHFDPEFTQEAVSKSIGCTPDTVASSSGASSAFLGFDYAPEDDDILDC

[18] = molecular target: Serine/threonine-protein kinase MRCK alpha (Homo sapiens, UniProt Q5VT25); assay: Inhibition of recombinant human MRCKalpha (1 to 473 residues) using KKRNRTLTV as substrate incubated for 40 mins in presence of [gamma-33ATP by radiometric scintillation counting analysis
[19] = molecular target: Serine/threonine-protein kinase ICK (Homo sapiens, UniProt Q9UPZ9); assay: Inhibition of human recombinant ICK (1 to 312 residues) using RRRFRPASPLRGP as substrate after 40 mins by [gamma-33ATP] by radiometric scintillation counting analysis
Sequence of Serine/threonine-protein kinase ICK (Q9UPZ9 whole entry, the tested form may be a part): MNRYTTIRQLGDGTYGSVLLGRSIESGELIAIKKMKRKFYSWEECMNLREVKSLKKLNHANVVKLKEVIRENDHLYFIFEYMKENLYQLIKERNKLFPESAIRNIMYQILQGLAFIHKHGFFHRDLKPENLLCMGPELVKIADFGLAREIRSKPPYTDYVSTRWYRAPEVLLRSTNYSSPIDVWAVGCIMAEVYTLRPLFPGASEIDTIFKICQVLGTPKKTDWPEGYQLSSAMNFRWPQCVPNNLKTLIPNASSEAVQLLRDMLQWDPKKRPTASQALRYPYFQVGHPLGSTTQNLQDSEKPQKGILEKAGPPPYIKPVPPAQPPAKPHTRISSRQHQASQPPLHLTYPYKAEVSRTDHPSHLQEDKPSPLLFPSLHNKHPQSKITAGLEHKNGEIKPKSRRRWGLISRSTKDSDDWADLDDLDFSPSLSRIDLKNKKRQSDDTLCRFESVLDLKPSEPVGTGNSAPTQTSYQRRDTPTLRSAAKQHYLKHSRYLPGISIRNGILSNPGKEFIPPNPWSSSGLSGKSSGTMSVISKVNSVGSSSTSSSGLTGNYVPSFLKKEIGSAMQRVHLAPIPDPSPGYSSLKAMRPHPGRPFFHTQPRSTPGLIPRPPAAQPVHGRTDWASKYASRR

[20] = molecular target: Protein kinase C alpha type (Homo sapiens, UniProt P17252); assay: Inhibition of recombinant human full length PKCalpha using histone as substrate incubated for 40 mins in presence of [gamma33P]ATP by radiometric scintillation counting analysis
[21] = Solubility of compound in miniQ water at 1 mg at 37 degreeC incubated under shaking conditions for overnight by LC-MS analysis; format: physicochemical
[22] = Protein binding in human plasma at 1 uM incubated incubated for 5 hrs under shaking conditions by LC-MS analysis; format: ADME, cell-free; settings: read-out: PPB (converted)
[23] = molecular target: Dual specificity protein kinase CLK4 (Homo sapiens, UniProt Q9HAZ1); assay: Inhibition of recombinant human CLK4 (128 to end residues) using YRRAAVPPSPSLSR as substrate incubated 40 mins in presence of [gamma-33ATP] by radiometric scintillation counting analysis
Sequence of Dual specificity protein kinase CLK4 (Q9HAZ1 whole entry): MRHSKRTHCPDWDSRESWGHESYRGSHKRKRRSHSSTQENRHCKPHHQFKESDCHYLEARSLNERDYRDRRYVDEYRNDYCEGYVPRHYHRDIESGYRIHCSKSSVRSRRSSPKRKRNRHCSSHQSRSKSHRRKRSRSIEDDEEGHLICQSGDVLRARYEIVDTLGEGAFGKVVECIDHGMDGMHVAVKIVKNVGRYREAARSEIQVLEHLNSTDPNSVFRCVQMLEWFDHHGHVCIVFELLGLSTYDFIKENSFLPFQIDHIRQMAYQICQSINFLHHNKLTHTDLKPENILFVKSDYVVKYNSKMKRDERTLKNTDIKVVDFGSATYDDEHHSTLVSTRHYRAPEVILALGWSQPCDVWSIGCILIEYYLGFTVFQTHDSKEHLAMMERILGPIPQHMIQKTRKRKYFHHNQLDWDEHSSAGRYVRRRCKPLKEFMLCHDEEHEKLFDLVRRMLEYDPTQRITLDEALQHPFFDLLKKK

Ephrin type-A receptor 1 = Ephrin type-A receptor 1 (Homo sapiens, UniProt P21709); assay: Inhibition of recombinant human EphA1 (568 to end residues) using KKKSPGEYVNIEF as substrate after 40 mins in presence of [gamma-33ATP] by radiometric scintillation counting analysis
[24] = molecular target: Tyrosine-protein kinase ZAP-70 (Homo sapiens, UniProt P43403); assay: Inhibition of recombinant full length human ZAP70 using poly(Glu, Tyr) 4:1 as substrate incubated for 40 mins in presence of [gamma33P]ATP by radiometric scintillation counting analysis
TGF-beta receptor type-1 = TGF-beta receptor type-1 (Homo sapiens, UniProt P36897, T204D); assay: Inhibition of recombinant human TGFBR1 T204D mutant (200 to end residues) using casein as substrate incubated for 40 mins in presence of [gamma33P]ATP by radiometric scintillation counting analysis
Sequence of TGF-beta receptor type-1 (P36897 34-503 T204D limits assumed): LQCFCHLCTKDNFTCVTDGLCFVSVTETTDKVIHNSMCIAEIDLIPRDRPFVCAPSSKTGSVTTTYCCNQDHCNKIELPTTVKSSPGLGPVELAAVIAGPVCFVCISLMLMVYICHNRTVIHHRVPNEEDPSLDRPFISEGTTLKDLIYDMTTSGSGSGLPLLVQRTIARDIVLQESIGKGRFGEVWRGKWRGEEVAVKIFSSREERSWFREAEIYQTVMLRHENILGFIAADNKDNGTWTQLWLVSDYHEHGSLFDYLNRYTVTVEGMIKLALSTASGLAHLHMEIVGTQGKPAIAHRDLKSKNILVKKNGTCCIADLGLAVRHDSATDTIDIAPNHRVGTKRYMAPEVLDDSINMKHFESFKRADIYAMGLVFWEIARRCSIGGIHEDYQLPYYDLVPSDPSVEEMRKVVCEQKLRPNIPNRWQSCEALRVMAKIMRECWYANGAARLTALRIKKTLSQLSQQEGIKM

CN(C)c1ccc(C(=O)Nc2cccc(NC(=O)COc3ccc4c(=O)ccoc4c3)c2)cc1
IC50 [1]: > 10 µM
IC50 [2]: > 10 µM
IC50 [3]: > 10 µM
IC50 [4]: > 10 µM
IC50 [5]: > 10 µM
IC50 [6]: > 10 µM
IC50 [7]: > 10 µM
IC50 [8]: > 10 µM
IC50 [9]: > 10 µM
IC50 [10]: > 10 µM
IC50 [11]: > 10 µM
IC50 [12]: > 10 µM
IC50 [13]: > 10 µM
IC50 [14]: > 10 µM
IC50 [15]: > 10 µM
IC50 [16]: > 10 µM
IC50 [17]: > 10 µM
IC50 [18]: > 10 µM
IC50 [19]: > 10 µM
IC50 [20]: > 10 µM
solubility thermodynamic [21]: 0.634 µg/mL (≈ 1.39 µM)
fraction unbound at 5 h, 1 µM [22]: 0.002
IC50 [23]: > 10 µM
IC50 (Ephrin type-A receptor 1): > 10 µM
IC50 [24]: > 10 µM
IC50 (TGF-beta receptor type-1): > 10 µM
